From ChEMBL document CHEMBL2016569, “Pyronepolyene C-glucosides with NF-κB inhibitory and anti-influenza A viral (H1N1) activities from the sponge-associated fungus Epicoccum sp. JJY40” (Bioorg Med Chem Lett, 2012) come the findings set out here.

The subject of one test is RAW264.7. The test is described as follows: Inhibition of LPS-induced NFkappaB expression in mouse RAW264.7 cells at 0.1 uM pretreated for 4 hrs before LPS challenge measured after 24 hrs by luciferase reporter gene assay relative to control. Type of test: cell-based.
Test [1] in a line: Inhibition of LPS-induced NFkappaB expression in mouse RAW264.7 cells pretreated for 4 hrs before LPS challenge measured after 24 hrs by luciferase reporter gene assay relative to control. In kind it is cell-based.
The next test has as its system Influenza A virus. In words: Antiviral activity against Influenza A virus (A/Puerto Rico/8/34(H1N1)) infected in MDCK cells assessed as inhibition of virus induced cytopathicity after 48 hrs. In kind it is functional, organism-based. Conditions: A/Puerto Rico/8/1934(H1N1).

Consider `S=C(S)N1CCCC1`, for which the inhibition with RAW264.7 stood at 85%.

Take `CCC(C)CC(C)/C=C(/C=C(C)/C=C/C=C/C=C/C=C/C=C/c1cc(O)c([C@@H]2O[C@H](CO)[C@H](O)[C@H](O)[C@H]2O)c(=O)o1)C(=O)O` (stereo partly specified): the values for the IC50 (in test [1]; with Influenza A virus) were 50 µM and 101 µM, respectively. Consider `NC(=O)c1ncn([C@@H]2O[C@H](CO)[C@@H](O)[C@H]2O)n1` [RIBAVIRIN], for which, in the test with Influenza A virus, the IC50 amounted to 115 µM.

In the case of `CCC(C)CC(C)/C=C(/C=C(C)\C=C\C=C\C=C\C=C\C=C\c1cc(O)c([C@@H]2O[C@H](CO)[C@H](O)[C@H](O)[C@H]2O)c(=O)o1)C(=O)O` (stereo partly specified), the half-inhibitory concentration (IC50) in test [1] amounted to 40 µM; with Influenza A virus, 91.5 µM.
